Patent US9637483B2, “Heterocyclic compound” (TAKEDA PHARMACEUTICAL COMPANY LIMITED, priority 2013, dated 2017)

Tests used:
Assay type in all cases: biochemical
TYK2 = target: T1, TYK2 (Homo sapiens, UniProt P29597); experiment: TYK2 enzyme inhibition test (LANCE method); conditions: 1 μM test compound; for inhibition at 1 µM: read-out: TYK2 enzyme inhibitory activity (%, 1 μM)
T1 construct: purchased Invitrogen
Summary of the method: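 Recombinant TYK2 (375 ng/mL working solution) with ULight-JAK1 peptide (300 nM working solution) and ATP (30 μM working solution) in HEPES pH 7.5 buffer with MgCl2, EGTA, DTT, Tween20, BSA, reacted 1 h at RT. EDTA-stopped, Eu-anti-phosphotyrosine TR-FRET read at 665 nm; inhibition relative to enzyme-free wells as 100%.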

JAK2 = target: T2, JAK2 (Homo sapiens, UniProt O60674); experiment: JAK2 enzyme inhibition test (LANCE method); conditions: 1 μM test compound; for inhibition at 1 µM: read-out: JAK2 enzyme inhibitory activity (%, 1 μM)
T2 construct: purchased Invitrogen
T2 sequence (O60674 whole entry): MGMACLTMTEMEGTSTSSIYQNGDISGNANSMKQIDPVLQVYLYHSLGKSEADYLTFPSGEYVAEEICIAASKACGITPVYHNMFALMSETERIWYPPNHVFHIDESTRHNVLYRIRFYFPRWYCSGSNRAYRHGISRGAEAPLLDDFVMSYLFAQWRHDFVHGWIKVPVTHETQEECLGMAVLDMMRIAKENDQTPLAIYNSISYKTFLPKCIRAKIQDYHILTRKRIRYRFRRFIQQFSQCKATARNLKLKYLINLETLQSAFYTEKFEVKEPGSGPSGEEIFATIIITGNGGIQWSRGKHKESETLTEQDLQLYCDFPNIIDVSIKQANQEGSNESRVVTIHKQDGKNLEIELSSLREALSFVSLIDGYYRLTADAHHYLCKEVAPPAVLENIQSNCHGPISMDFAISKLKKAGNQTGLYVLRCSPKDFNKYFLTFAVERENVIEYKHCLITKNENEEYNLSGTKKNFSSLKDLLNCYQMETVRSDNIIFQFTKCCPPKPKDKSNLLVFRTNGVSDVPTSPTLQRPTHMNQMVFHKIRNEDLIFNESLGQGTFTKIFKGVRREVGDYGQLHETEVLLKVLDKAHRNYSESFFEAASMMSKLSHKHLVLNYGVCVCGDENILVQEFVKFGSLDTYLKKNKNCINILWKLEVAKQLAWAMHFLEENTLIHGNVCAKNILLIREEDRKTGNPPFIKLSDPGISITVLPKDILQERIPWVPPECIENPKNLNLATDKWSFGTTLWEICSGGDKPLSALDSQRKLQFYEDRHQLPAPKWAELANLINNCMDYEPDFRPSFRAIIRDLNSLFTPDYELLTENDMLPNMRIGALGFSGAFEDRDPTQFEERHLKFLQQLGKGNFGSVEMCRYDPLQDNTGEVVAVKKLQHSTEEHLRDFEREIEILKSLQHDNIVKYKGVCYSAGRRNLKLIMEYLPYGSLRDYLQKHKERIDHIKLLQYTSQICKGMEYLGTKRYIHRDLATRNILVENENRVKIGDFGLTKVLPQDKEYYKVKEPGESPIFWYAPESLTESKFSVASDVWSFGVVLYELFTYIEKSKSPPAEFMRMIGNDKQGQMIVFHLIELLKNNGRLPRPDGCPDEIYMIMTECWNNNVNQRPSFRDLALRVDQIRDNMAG
Summary of the method: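 Recombinant JAK2 (6 ng/mL solution) phosphorylated ULight-JAK1 peptide (300 nM solution) with ATP (45 μM solution) in pH 7.5 HEPES/MgCl2/DTT buffer for 1 hr at room temperature. After EDTA stop and europium anti-phosphotyrosine antibody for 1 hr, TR-FRET read at 665 nm; inhibition relative to enzyme-free wells as 100%.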

JAK3 = target: T3, JAK3 (Homo sapiens, UniProt P52333); experiment: JAK3 enzyme inhibition test (LANCE method); conditions: 1 μM test compound; for inhibition at 1 µM: read-out: JAK3 enzyme inhibitory activity (%, 1 μM)
T3 construct: purchased Invitrogen
T3 sequence (P52333 1-1124): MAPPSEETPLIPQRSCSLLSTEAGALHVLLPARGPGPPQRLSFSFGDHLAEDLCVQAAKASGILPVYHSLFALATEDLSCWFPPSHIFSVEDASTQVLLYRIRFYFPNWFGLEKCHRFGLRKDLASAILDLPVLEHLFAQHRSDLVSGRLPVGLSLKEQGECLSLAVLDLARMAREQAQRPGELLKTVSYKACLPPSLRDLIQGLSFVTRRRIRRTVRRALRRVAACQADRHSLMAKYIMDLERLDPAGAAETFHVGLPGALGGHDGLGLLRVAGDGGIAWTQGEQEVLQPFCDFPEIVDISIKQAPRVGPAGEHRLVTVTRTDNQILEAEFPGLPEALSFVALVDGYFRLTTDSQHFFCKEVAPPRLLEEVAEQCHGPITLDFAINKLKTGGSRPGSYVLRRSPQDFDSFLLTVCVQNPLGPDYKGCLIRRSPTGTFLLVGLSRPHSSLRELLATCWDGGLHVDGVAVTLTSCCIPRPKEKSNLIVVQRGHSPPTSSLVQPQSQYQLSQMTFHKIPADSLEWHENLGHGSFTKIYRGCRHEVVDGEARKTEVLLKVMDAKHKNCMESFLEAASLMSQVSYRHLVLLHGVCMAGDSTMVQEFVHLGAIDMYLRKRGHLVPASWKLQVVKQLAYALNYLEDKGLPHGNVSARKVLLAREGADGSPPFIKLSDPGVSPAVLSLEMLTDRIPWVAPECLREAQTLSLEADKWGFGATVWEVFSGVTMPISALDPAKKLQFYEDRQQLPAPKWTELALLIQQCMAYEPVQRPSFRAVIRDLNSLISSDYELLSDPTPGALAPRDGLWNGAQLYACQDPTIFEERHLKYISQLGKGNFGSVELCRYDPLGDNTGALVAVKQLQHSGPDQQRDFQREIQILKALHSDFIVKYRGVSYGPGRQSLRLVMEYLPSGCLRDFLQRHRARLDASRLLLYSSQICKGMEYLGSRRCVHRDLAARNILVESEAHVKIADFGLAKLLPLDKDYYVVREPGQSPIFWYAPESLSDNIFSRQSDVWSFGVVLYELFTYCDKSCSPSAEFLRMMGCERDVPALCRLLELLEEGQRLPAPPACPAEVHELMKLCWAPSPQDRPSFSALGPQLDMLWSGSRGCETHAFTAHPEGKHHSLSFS
Summary of the method: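 Recombinant JAK3 (12 ng/mL solution) with ULight-JAK1 peptide (300 nM solution) and ATP (15 μM solution) in HEPES pH 7.5 buffer, 1 h at room temperature. EDTA stop with Eu-anti-phosphotyrosine antibody; TR-FRET at 665 nm. Inhibition relative to enzyme-free wells as 100%.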

JAK1 = target: T4, JAK1 (Homo sapiens, UniProt P23458); experiment: JAK1 enzyme inhibition test (LANCE method); conditions: 1 μM test compound; for inhibition at 1 µM: read-out: JAK1 enzyme inhibitory activity (%, 1 μM)
T4 construct: purchased Invitrogen
T4 sequence (P23458 whole entry): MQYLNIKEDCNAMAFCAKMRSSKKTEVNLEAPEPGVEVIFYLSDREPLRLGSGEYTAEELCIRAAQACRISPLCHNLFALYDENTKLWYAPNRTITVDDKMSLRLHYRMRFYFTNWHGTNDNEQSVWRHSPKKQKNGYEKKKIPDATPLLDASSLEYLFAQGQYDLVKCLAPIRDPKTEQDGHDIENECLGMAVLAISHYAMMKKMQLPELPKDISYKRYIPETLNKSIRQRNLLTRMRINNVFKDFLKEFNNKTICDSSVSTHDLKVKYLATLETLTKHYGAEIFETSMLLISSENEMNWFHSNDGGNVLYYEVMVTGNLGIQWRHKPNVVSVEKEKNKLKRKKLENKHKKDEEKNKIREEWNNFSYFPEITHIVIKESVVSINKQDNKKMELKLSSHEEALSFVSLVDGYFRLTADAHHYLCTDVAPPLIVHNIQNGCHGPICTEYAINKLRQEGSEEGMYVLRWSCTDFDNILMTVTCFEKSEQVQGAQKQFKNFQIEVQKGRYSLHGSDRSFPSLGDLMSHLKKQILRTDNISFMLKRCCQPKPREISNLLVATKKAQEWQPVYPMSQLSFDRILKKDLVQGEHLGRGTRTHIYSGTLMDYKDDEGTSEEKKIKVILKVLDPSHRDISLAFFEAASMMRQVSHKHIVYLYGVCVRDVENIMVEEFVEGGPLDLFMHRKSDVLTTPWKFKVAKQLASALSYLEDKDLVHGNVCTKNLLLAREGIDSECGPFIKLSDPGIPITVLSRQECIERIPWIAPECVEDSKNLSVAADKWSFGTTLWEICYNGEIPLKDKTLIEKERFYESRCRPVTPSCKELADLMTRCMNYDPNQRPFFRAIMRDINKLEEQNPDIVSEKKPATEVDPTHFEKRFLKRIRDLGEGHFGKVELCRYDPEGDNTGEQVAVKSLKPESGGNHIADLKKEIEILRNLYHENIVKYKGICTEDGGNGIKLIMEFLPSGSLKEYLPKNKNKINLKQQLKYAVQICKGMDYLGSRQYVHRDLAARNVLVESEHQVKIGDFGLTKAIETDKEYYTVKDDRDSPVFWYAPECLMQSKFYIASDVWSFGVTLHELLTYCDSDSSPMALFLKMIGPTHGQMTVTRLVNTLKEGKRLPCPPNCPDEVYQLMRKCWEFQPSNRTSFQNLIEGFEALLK
Summary of the method: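 TR-FRET (LANCE) with ULight-JAK1 peptide (300 nM working solution) and ATP (150 μM working solution) in HEPES pH 7.5, MgCl2, EGTA, DTT buffer; 1 h at room temperature. EDTA stop plus Eu-anti-phosphotyrosine antibody, 665 nm read after 1 h. Inhibition relative to enzyme-free wells as 100%.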

T1 sequence (P29597 whole entry): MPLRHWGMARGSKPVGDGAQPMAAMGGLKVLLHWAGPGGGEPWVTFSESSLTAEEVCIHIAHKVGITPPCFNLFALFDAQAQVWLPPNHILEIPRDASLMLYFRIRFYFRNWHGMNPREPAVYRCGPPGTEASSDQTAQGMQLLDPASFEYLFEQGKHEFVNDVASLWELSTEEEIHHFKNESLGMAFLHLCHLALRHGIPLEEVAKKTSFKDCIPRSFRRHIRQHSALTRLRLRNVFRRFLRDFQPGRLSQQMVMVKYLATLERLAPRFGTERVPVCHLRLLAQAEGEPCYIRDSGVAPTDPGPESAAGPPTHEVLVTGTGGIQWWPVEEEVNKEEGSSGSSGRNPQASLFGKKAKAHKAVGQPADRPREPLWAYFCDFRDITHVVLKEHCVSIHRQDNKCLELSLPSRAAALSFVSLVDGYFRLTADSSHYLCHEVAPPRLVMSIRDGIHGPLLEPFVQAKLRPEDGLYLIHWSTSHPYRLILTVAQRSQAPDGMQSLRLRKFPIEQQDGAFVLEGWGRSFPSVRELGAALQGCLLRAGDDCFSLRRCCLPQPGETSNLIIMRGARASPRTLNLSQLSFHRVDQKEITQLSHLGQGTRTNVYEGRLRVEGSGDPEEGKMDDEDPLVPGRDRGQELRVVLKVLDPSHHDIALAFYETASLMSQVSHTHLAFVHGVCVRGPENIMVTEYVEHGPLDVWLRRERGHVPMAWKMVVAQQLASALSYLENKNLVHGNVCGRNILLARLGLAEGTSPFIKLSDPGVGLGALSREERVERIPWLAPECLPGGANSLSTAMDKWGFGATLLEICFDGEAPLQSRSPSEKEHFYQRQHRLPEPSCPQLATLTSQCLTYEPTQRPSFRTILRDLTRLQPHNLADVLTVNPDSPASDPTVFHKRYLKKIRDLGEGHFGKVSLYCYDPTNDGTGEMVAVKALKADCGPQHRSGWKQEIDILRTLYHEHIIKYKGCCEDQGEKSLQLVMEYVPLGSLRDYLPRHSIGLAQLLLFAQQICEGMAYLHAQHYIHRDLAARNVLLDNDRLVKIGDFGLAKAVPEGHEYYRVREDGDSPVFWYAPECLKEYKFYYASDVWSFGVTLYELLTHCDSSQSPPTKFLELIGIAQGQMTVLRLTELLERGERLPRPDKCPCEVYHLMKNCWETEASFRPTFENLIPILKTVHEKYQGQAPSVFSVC

| SMILES | inhibition at 1 µM (TYK2) [%] | inhibition at 1 µM (JAK2) [%] | inhibition at 1 µM (JAK3) [%] | inhibition at 1 µM (JAK1) [%] | JAK1 enzyme inhibitory activity (%, 1 μM) (JAK1) [%] | TYK2 enzyme inhibitory activity (%, 1 μM) (TYK2; 1 µM) [%] | JAK2 enzyme inhibitory activity (%, 1 μM) (JAK2; 1 µM) [%] | JAK3 enzyme inhibitory activity (%, 1 μM) (JAK3; 1 µM) [%] |
| --- | --- | --- | --- | --- | --- | --- | --- | --- |
| CC(C)[C@@H](C)n1cc(-c2cc(C(C)(C)O)n(C)n2)c2[nH]nc(N)c2c1=O [Example 100, 3-amino-7-(5-(2-hydroxypropan-2-yl)-1-methyl-1H-pyrazol-3-yl)-5-((2R)-3-methylbutan-2-yl)-1,5-dihydro-4H-pyrazolo[4,3-c]pyridin-4-one] | 96 | 65 | 86 | 82 |  |  |  |  |
| CC(C)[C@H](C)n1cc(-c2cc(N(C)C(C)C)n(C)n2)c2[nH]nc(N)c2c1=O [Example 101, 3-amino-7-(5-(isopropyl(methyl)amino)-1-methyl-1H-pyrazol-3-yl)-5-((2S)-3-methylbutan-2-yl)-1,5-dihydro-4H-pyrazolo[4,3-c]pyridin-4-one] | 100 | 97 | 99 | 96 |  |  |  |  |
| CC(C)[C@H](C)n1cc(-c2cc(N3CCN(S(=O)(=O)C(C)C)CC3)n(C)n2)c2[nH]nc(N)c2c1=O [Example 102, 3-amino-7-(5-(4-(isopropylsulfonyl)piperazin-1-yl)-1-methyl-1H-pyrazol-3-yl)-5-((2S)-3-methylbutan-2-yl)-1,5-dihydro-4H-pyrazolo[4,3-c]pyridin-4-one] | 100 | 98 | 99 | 97 |  |  |  |  |

Now from value to compound:

| inhibition at 1 µM (TYK2) [%] | inhibition at 1 µM (JAK2) [%] | inhibition at 1 µM (JAK3) [%] | inhibition at 1 µM (JAK1) [%] | JAK1 enzyme inhibitory activity (%, 1 μM) (JAK1) [%] | TYK2 enzyme inhibitory activity (%, 1 μM) (TYK2; 1 µM) [%] | JAK2 enzyme inhibitory activity (%, 1 μM) (JAK2; 1 µM) [%] | JAK3 enzyme inhibitory activity (%, 1 μM) (JAK3; 1 µM) [%] | SMILES |
| --- | --- | --- | --- | --- | --- | --- | --- | --- |
| 96 | 93 | 97 |  | 51 |  |  |  | CC(C)[C@H](C)n1cc(-c2cc(N3CCCC3CN(C)C)n(C)n2)c2[nH]nc(N)c2c1=O (stereo partly drawn) [Example 103, 3-amino-7-(5-(2-((dimethylamino)methyl)pyrrolidin-1-yl)-1-methyl-1H-pyrazol-3-yl)-5-((2S)-3-methylbutan-2-yl)-1,5-dihydro-4H-pyrazolo[4,3-c]pyridin-4-one] |
|  |  |  |  | 72 | 100 | 96 | 98 | CC(C)[C@H](C)n1cc(-c2cc(N3CCCC3CN(C)C)n(C)n2)c2[nH]nc(N)c2c1=O (stereo partly drawn) [Example 104, 3-amino-7-(5-(2-((dimethylamino)methyl)pyrrolidin-1-yl)-1-methyl-1H-pyrazol-3-yl)-5-((2S)-3-methylbutan-2-yl)-1,5-dihydro-4H-pyrazolo[4,3-c]pyridin-4-one] |
| 99 | 99 | 99 | 97 |  |  |  |  | CC(C)[C@H](C)n1cc(-c2cc(N3CC4(COC4)C3)n(C)n2)c2[nH]nc(N)c2c1=O [Example 105, 3-amino-5-((2S)-3-methylbutan-2-yl)-7-(1-methyl-5-(2-oxa-6-azaspiro[3.3]hept-6-yl)-1H-pyrazol-3-yl)-1,5-dihydro-4H-pyrazolo[4,3-c]pyridin-4-one] |
| 100 | 99 | 99 | 97 |  |  |  |  | CC(C)[C@H](C)n1cc(-c2cc(N3CCC(F)(F)C3)n(C)n2)c2[nH]nc(N)c2c1=O [Example 106, 3-amino-7-(5-(3,3-difluoropyrrolidin-1-yl)-1-methyl-1H-pyrazol-3-yl)-5-((2S)-3-methylbutan-2-yl)-1,5-dihydro-4H-pyrazolo[4,3-c]pyridin-4-one] |
| 100 | 98 | 99 | 97 |  |  |  |  | CC(C)[C@H](C)n1cc(-c2cc(N3CCN(S(=O)(=O)C4CC4)CC3)n(C)n2)c2[nH]nc(N)c2c1=O [Example 107, 3-amino-7-(5-(4-(cyclopropylsulfonyl)piperazin-1-yl)-1-methyl-1H-pyrazol-3-yl)-5-((2S)-3-methylbutan-2-yl)-1,5-dihydro-4H-pyrazolo[4,3-c]pyridin-4-one] |
